Measurements published in patent publication US11382918B2, “Methods for treating Huntington's Disease” (PTC Therapeutics, Inc., priority 2017, dated 2022).

Tested on: Endogenous Huntingtin Protein (HTT)
Assay: Endogenous Huntingtin Protein Assay (ELISA-based MSD electrochemiluminescence)
Type: cell-based
Settings: Table 1
Procedure: Compounds of Formula (I) were tested using the Meso Scale Discovery (MSD) Assay provided in International Application No. PCT/US2016/066042, filed on Dec. 11, 2016 and claiming priority to U.S. Provisional Application 62/265,652 filed on Dec. 10, 2015, published as International Publication No. WO 2017/100726 on Jun. 15, 2017, the entire contents of which are incorporated herein by reference.
The Endogenous Huntingtin Protein assay used in Example 1 was developed using the ELISA-based MSD electrochemiluminescence assay platform.
Endogenous Huntingtin Protein Assay
Meso Scale Discovery (MSD) 96-well or 384-well plates were coated overnight at 4° C. with MW1 (expanded polyglutamine) or MAB2166 monoclonal antibody (for capture) at a concentration of 1 μg/mL in PBS (30 μL per well). Plates were then washed three times with 300 µL wash buffer (0.05% Tween-20 in PBS) and blocked (100 μL blocking buffer; 5% BSA in PBS) for 4-5 hours at room temperature with rotational shaking and then washed three times with wash buffer.
Samples (25 μL) were transferred to the antibody-coated MSD plate and incubated overnight at 4° C. After removal of the lysates, the plate was washed three times with wash buffer, and 25 μL of #5656S (Cell signaling; rabbit monoclonal) secondary antibody (diluted to 0.25 μg/mL in 0.05% Tween-20 in blocking buffer) was added to each well and incubated with shaking for 1 Hour at room temperature. Following incubation with the secondary antibody, the wells were rinsed with wash buffer after which 25 μL of goat anti-rabbit SULFO TAG secondary detection antibody (required aspect of the MSD system) (diluted to 0.25 μg/mL in 0.05% Tween-20 in blocking buffer) was added to each well and incubated with shaking for 1 hour at room temperature. After rinsing three times with wash buffer, 150 μL of read buffer T with surfactant (MSD) were added to each empty well, and the plate was imaged on a SI 6000 imager (MSD) according to manufacturers' instructions provided for 96- or 384-well plates.

| IC50 [µM] | SMILES |
| --- | --- |
| 3 to 33 | Cc1cn(-c2cc(=O)n3cc(N4CCNCC4)ccc3n2)cn1 [compound 179, 2-(4-methyl-1H-imidazol-1-yl)-7-(piperazin-1-yl)-4H-pyrido[1,2-a]pyrimidin-4-one] |
| 3 to 33 | C[C@H]1CN(c2ccc3nc(-c4cnn(C)c4)cc(=O)n3c2)CCN1 [compound 191, 7-[(3S)-3-methylpiperazin-1-yl]-2-(1-methyl-1H-pyrazol-4-yl)-4H-pyrido[1,2-a]pyrimidin-4-one] |
| 3 to 33 | Cn1cc(-c2cc(=O)n3cc(N4CCNCC4)ccc3n2)cn1 [compound 192, 2-(1-methyl-1H-pyrazol-4-yl)-7-(piperazin-1-yl)-4H-pyrido[1,2-a]pyrimidin-4-one] |
| 3 to 33 | Cc1nc2ccc(-c3cc(=O)n4cc(N5CCNC(C)(C)C5)ccc4n3)cc2o1 [compound 194, 7-(3,3-dimethylpiperazin-1-yl)-2-(2-methyl-1,3-benzoxazol-6-yl)-4H-pyrido[1,2-a]pyrimidin-4-one] |
| 3 to 33 | COc1cnc(-c2cc(=O)n3cc(N4CCNCC4)ccc3n2)cc1OC [compound 199, 2-(4,5-dimethoxypyridin-2-yl)-7-(piperazin-1-yl)-4H-pyrido[1,2-a]pyrimidin-4-one] |
| 0.1 to 0.5 | Cc1cn2cc(-c3cc(=O)n4cc(N5CCNCC5)ccc4n3)cc(F)c2n1 [compound 209, 2-(8-fluoro-2-methylimidazo[1,2-a]pyridin-6-yl)-7-(piperazin-1-yl)-4H-pyrido[1,2-a]pyrimidin-4-one] |
| 3 to 33 | Cc1nc2ccc(-c3cc(=O)n4cc(N5CCNCC5)ccc4n3)cc2s1 [compound 219, 2-(2-methyl-1,3-benzothiazol-6-yl)-7-(piperazin-1-yl)-4H-pyrido[1,2-a]pyrimidin-4-one] |
| 3 to 33 | O=c1cc(-c2cccnc2)nc2ccc(N3CCNCC3)cn12 [compound 228, 7-(piperazin-1-yl)-2-(pyridin-3-yl)-4H-pyrido[1,2-a]pyrimidin-4-one] |
| 3 to 33 | COc1cncc(-c2cc(=O)n3cc(N4CCNCC4)ccc3n2)c1 [compound 229, 2-(5-methoxypyridin-3-yl)-7-(piperazin-1-yl)-4H-pyrido[1,2-a]pyrimidin-4-one] |
| 3 to 33 | Cc1cn2nc(-c3cc(=O)n4cc(N5CCN(C)[C@@H](C)C5)ccc4n3)cc2c(C)n1 [compound 258, 7-[(3S)-3,4-dimethylpiperazin-1-yl]-2-(4,6-dimethylpyrazolo[1,5-a]pyrazin-2-yl)-4H-pyrido[1,2-a]pyrimidin-4-one] |
| 3 to 33 | Cc1cn2nc(-c3cc(=O)n4cc(N5C[C@@H](C)N(C)[C@@H](C)C5)ccc4n3)cc2c(C)n1 [compound 259, 2-(4,6-dimethylpyrazolo[1,5-a]pyrazin-2-yl)-7-[(3R,5S)-3,4,5-trimethylpiperazin-1-yl]-4H-pyrido[1,2-a]pyrimidin-4-one] |
| 3 to 33 | COc1ccc(-c2cc(=O)n3cc(N4CCC(N(C)C)CC4)cc(C)c3n2)cc1OC [compound 261, 2-(3,4-dimethoxyphenyl)-7-[4-(dimethylamino)piperidin-1-yl]-9-methyl-4H-pyrido[1,2-a]pyrimidin-4-one] |
| 3 to 33 | Cc1cn2cc(-c3ccc4nc(N5CCNCC5)cc(=O)n4c3)cc(F)c2n1 [compound 268, 7-(8-fluoro-2-methylimidazo[1,2-a]pyridin-6-yl)-2-(piperazin-1-yl)-4H-pyrido[1,2-a]pyrimidin-4-one] |
| 0.5 to 1 | Cc1cn2cc(-c3cc(=O)n4cc(N5CCN(C)CC5)ccc4n3)cc(F)c2n1 [compound 269, 2-(8-fluoro-2-methylimidazo[1,2-a]pyridin-6-yl)-7-(4-methylpiperazin-1-yl)-4H-pyrido[1,2-a]pyrimidin-4-one] |
| 1 to 3 | Cc1cn2cc(-c3cc(=O)n4cc(N5CCN6CCC[C@H]6C5)ccc4n3)cc(F)c2n1 [compound 271, 2-(8-fluoro-2-methylimidazo[1,2-a]pyridin-6-yl)-7-[(8aS)-hexahydropyrrolo[1,2-a]pyrazin-2(1H)-yl]-4H-pyrido[1,2-a]pyrimidin-4-one] |
| 0.5 to 1 | Cc1cn2cc(-c3cc(=O)n4cc(N5CCN6CCC[C@@H]6C5)ccc4n3)cc(F)c2n1 [compound 272, 2-(8-fluoro-2-methylimidazo[1,2-a]pyridin-6-yl)-7-[(8aR)-hexahydropyrrolo[1,2-a]pyrazin-2(1H)-yl]-4H-pyrido[1,2-a]pyrimidin-4-one] |
| 0.1 to 0.5 | Cc1cn2cc(-c3cc(=O)n4cc(N5CCNCC5)ccc4n3)cc(Cl)c2n1 [compound 287, 2-(8-chloro-2-methylimidazo[1,2-a]pyridin-6-yl)-7-(piperazin-1-yl)-4H-pyrido[1,2-a]pyrimidin-4-one] |
| 0.1 to 0.5 | Cc1nc2c(F)cc(-c3cc(=O)n4cc(N5CCNCC5)ccc4n3)cc2o1 [compound 305, 2-(4-fluoro-2-methyl-1,3-benzoxazol-6-yl)-7-(piperazin-1-yl)-4H-pyrido[1,2-a]pyrimidin-4-one] |
| 0.1 to 0.5 | Cc1nc2c(F)cc(-c3cc(=O)n4cc(N5CCN[C@@H](C)C5)ccc4n3)cc2o1 [compound 306, 2-(4-fluoro-2-methyl-1,3-benzoxazol-6-yl)-7-[(3S)-3-methylpiperazin-1-yl]-4H-pyrido[1,2-a]pyrimidin-4-one] |
| 0.5 to 1 | Cc1nc2c(F)cc(-c3cc(=O)n4cc(N5CCN(C)CC5)ccc4n3)cc2o1 [compound 308, 2-(4-fluoro-2-methyl-1,3-benzoxazol-6-yl)-7-(4-methylpiperazin-1-yl)-4H-pyrido[1,2-a]pyrimidin-4-one] |
| 1 to 3 | CCN1CCN(c2ccc3nc(-c4cc(F)c5nc(C)oc5c4)cc(=O)n3c2)CC1 [compound 309, 7-(4-ethylpiperazin-1-yl)-2-(4-fluoro-2-methyl-1,3-benzoxazol-6-yl)-4H-pyrido[1,2-a]pyrimidin-4-one] |
| 3 to 33 | Cc1cn2nc(-c3cc(=O)n4cc(N5CCN6CCC[C@H]6C5)ccc4n3)cc2c(C)n1 [compound 336, 2-(4,6-dimethylpyrazolo[1,5-a]pyrazin-2-yl)-7-[(8aS)-hexahydropyrrolo[1,2-a]pyrazin-2(1H)-yl]-4H-pyrido[1,2-a]pyrimidin-4-one] |
| 3 to 33 | Cc1cn2nc(-c3cc(=O)n4cc(N5CCN6CCC[C@@H]6C5)ccc4n3)cc2c(C)n1 [compound 337, 2-(4,6-dimethylpyrazolo[1,5-a]pyrazin-2-yl)-7-[(8aR)-hexahydropyrrolo[1,2-a]pyrazin-2(1H)-yl]-4H-pyrido[1,2-a]pyrimidin-4-one] |

| SMILES | IC50 [µM] |
| --- | --- |
| Cc1nc2ccc(-c3cc(=O)n4cc(C5=CCNCC5)ccc4n3)cc2o1 [compound 302, 2-(2-methyl-1,3-benzoxazol-6-yl)-7-(1,2,3,6-tetrahydropyridin-4-yl)-4H-pyrido[1,2-a]pyrimidin-4-one] | 0.1 to 0.5 |
| CCN1CC=C(c2ccc3nc(-c4cc(F)c5nc(C)oc5c4)cc(=O)n3c2)CC1 [compound 318, 7-(1-ethyl-1,2,3,6-tetrahydropyridin-4-yl)-2-(4-fluoro-2-methyl-1,3-benzoxazol-6-yl)-4H-pyrido[1,2-a]pyrimidin-4-one] | 1 to 3 |
| Cc1cn2nc(-c3cc(=O)n4cc(C5=CCN(C)CC5)ccc4n3)cc2c(C)n1 [compound 350, 2-(4,6-dimethylpyrazolo[1,5-a]pyrazin-2-yl)-7-(1-methyl-1,2,3,6-tetrahydropyridin-4-yl)-4H-pyrido[1,2-a]pyrimidin-4-one] | 3 to 33 |
